Data reported in patent US5843916A, “Cyclic amp analogues, individually and in pairs, to inhibit neoplastic cell growth” (priority 1994, dated 1998).

System: MCF-7ras breast cancer cell line
Assay: Synergistic growth inhibition by analogue combinations (Table 2)
Assay type: cell-based, human
Details: footnote of Table 2
Method: All breast cancer cell lines were grown in IMEM supplemented with 10% fetal bovine serum, HEPES 20 mM, penicillin-streptomycin, and extra glutamine. Colon carcinoma cell lines were grown in EMEM supplemented with 10% FBS, EMEM, NEAA, HEPES 20 mM, extra glutamine, and penicillin-streptomycin. The cells were grown at 37° C. in humidified incubators in an atmosphere of 5% CO2.
For cell growth experiments, 2-3×10^5 cells/60 mm dish were seeded, and 24 hours later (Day 0), the medium was removed, and fresh medium and the additives were added then and every 48 hours thereafter. The compounds of the present invention were added using 100X concentrated stock solutions. At desired times, cell counts in duplicate were performed on a Coulter counter after harvesting the cells with gentle trypsinization.
Synergism quotient was defined as the net growth inhibitory effect of the analogue combination divided by the sum of the net analogue effects on growth inhibition. A quotient of >1 indicates a synergistic effect, while a quotient of <1 indicates an antagonistic effect.
Synergism of growth inhibition was determined by
treatment of cells with C-6 analogues and C-8 analogues alone
and in combination at Day 0 and Day 2 and counting the cell
^a Data are expressed as percentage growth inhibition in reference to
the growth of untreated control cells and represent average values and
ranges (in parentheses) of duplicate cell counts on three or more separat
experiments. The values for percentage growth inhibition of each analogue
^b The synergism quotient was defined as previously described.

Compound: Nc1ncnc2c1nc(Cl)n2[C@@H]1O[C@@H]2COP(=O)(O)O[C@H]2[C@H]1O [8-Cl-cAMP, 8-chloro-adenosine 3': 5'-monophosphate]
- percentage growth inhibition of each analogue when added alone: 20%
